The results in this text go back to BindingDB's records for doi:10.1111/cbdd.12379 (Quaid-I-Azam University, 2015).

Usually pIC50 stands for the IC50 on a negative log10 scale, so that one unit is a factor of ten. Lower therefore signals a large IC50.

The structures appear in SMILES notation. pIC50: −log10 of the molar value.

The target of the assay is Urease [D459Y,K653P] (Canavalia ensiformis, UniProt P07374, D459Y/K653P). In words: In vitro Urease Inhibition Assay. As to conditions: pH 8.2. The procedure: Urease inhibition activity was determined by indophenol method. […] Initially, urease enzyme and the test compound were incubated in the assay buffer for 30 minutes (in a linear reaction range) at 37 °C, 40 µL of phenol and alkali reagents were added to stop the reaction. […] All the assays were performed in triplicate.
Chain of Urease [D459Y,K653P] (P07374 whole entry D459Y/K653P): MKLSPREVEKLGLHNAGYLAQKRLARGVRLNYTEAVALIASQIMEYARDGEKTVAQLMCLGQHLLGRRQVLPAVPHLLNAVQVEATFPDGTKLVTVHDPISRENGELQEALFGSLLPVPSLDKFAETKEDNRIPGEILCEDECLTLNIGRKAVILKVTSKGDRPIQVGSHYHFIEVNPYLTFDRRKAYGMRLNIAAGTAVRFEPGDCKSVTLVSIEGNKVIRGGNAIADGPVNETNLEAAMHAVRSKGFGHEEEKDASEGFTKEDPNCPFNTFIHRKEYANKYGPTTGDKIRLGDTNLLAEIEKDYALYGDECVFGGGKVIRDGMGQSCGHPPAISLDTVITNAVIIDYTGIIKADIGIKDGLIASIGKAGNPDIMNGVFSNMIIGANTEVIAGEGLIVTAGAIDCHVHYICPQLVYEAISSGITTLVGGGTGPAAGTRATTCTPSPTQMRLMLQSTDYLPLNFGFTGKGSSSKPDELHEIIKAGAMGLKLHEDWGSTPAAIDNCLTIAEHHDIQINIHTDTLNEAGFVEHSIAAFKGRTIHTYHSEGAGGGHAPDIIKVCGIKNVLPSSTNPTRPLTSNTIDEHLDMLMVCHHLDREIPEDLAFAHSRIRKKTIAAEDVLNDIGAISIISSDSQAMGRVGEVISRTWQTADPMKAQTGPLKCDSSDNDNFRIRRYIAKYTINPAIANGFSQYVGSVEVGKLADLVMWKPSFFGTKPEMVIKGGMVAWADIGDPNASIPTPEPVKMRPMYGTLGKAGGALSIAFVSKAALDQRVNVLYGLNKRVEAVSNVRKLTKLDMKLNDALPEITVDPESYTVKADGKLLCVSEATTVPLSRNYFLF
Molecule `NC(=S)N/N=C/Cc1ccccc1` [[(E)-(2-phenylethylidene)amino]thiourea (3j)] had a pIC50 of 5.37.

In turn, `Cc1ccc(C/C=N/NC(N)=S)o1` [[(E)-[2-(5-methylfuran-2-yl)ethylidene]amino]thiourea (3g)] showed a pIC50 of 5.49.

The molecule `NC(=S)N/N=C/Cc1ccco1` [[(E)-[2-(furan-2-yl)ethylidene]amino]thiourea (3f)] had a pIC50 of 6.24.

Molecule `NC(=S)N/N=C/Cc1ccc2ccc3cccc4ccc1c2c34` [[(E)-[2-(pyren-1-yl)ethylidene]amino]thiourea (3m)] gave a negative logarithm of the IC50 (pIC50) of 5.32.

As to `NC(=S)N/N=C/Cc1ccccn1` [[(E)-[2-(pyridin-2-yl)ethylidene]amino]thiourea (3a)], the pIC50 is 5.58.

For `NC(=S)N/N=C/Cc1cccnc1` [[(E)-[2-(pyridin-3-yl)ethylidene]amino]thiourea (3b)], the pIC50 is 5.62.

Consider `COc1cc(C/C=N/NC(N)=S)ccc1OCc1ccccc1` [[(E)-{2-[4-(benzyloxy)-3-methoxyphenyl]ethylidene}amino]thiourea (3l)], for which the pIC50 is 4.12.

On to `NC(=S)N/N=C/Cc1ccc(OCc2ccccc2)cc1` [[(E)-{2-[4-(benzyloxy)phenyl]ethylidene}amino]thiourea (3k)], for which the negative logarithm of the IC50 (pIC50) was 5.44.
